Assay results as given in patent US8481522B2, “Platinum-N-heterocyclic carbene derivatives, preparation thereof and therapeutic use thereof” (Sanofi, priority 2008, dated 2013).
“And” between values parts separate entries of the source, which are not always exact repeats. Identical values can stand only once.

Legend:
CCRF-CEM cells = assay: Cytotoxicity, non-adherent CCRF-CEM cells, CellTiter-Glo luminescent cell viability; format: cell-based; conditions: CCRF-CEM human T leukaemia, 96 h incubation
Experimental: CCRF-CEM is a human T leukaemia (Cancer 1965, 18: 522-529). Oxaliplatin induces bifunctional lesions such as inter- and intra-DNA strand adducts on these CCRF-CEM cells (Mol Pharmacol 2000, 58: 920-927). […] This deficiency makes these cells particularly […] to alkylating agents and to platinum compounds.
For the non-adherent CCRF-CEM cells, the cell viability is measured by the luminescence test CellTiter-Glo® Luminescent Cell Viability Assay (Promega, Madison, Wis., USA). When it is added to the cells, the reagent produces a luminescence in the presence of the ATP of the living cells. The results are evaluated on a suitable reader (Envision, Perkin-Elmer Life Sciences, Boston, Mass., USA).
The CCRF-CEM cells are cultured in RPMI1640 medium containing 10% foetal calf serum, 2 mM L-glutamine, 100 units/ml of penicillin and […] of streptomycin, at 37° C. in a 95% air/5% CO2 atmosphere. The cells, at the exponential growth phase, are introduced into the wells of a 96-well plate at the density of 5×10^3 cells per well in an opaque plate (Greiner), in a volume of 150 μl. After incubating for 4 h at 37° C. in a 95% air/5% CO2 atmosphere, the compounds (concentrated 20-fold) are added in a volume of 8 μl. The compounds are prepared beforehand as a stock solution at the concentration of 10 mM in DMSO. A serial dilution is performed before the compounds are brought into contact with the cells. After incubating for 96 h at 37° C., 100 μl of agents (CellTiter-Glo) are added. After lysing the cells, the release of ATP is evaluated on the Envision reader.
(§1) The IC50 values are evaluated from curves presenting the percentage viability as a function of the concentration of the test compound, using the Biostat speed software. The IC50 is defined as the concentration of the compound which inhibits 50% of the cell proliferation or 50% of the cell viability.

H460 = assay: Cytotoxicity, adherent cells, 14C-thymidine incorporation (cell proliferation); format: cell-based; conditions: NCI-H460 human non-small cell lung cancer, 96 h treatment
Experimental: NCI-H460 is a human non-small cell lung cancer which has a mutation in the K-ras gene. This cell is sensitive to platinum compounds. In this cell line, cisplatin forms more adducts than oxaliplatin at the same concentration and yet the percentage repair is higher for oxaliplatin (DNA Repair 2006, 5: 219-225).
Cell proliferation is evaluated by the incorporation of ^14C-thymidine into the DNA of the cells. A549, CH1, CH1/DDP and H460 are cultured in Dulbecco's modified Eagle's medium (DMEM), SK-OV-3 in Mc-Coy medium, A2780 and A2780/DDP in RPMI1640 medium. All the media contain 10% foetal calf serum, 2 mM L-glutamine, 100 units/ml of penicillin and […] of streptomycin. The incubation is performed at 37° C. in a 95% air/5% CO2 atmosphere.
The cells, at the exponential growth phase, are introduced into the wells of a Cytostar 96-well plate, containing a scintillation fluid (Cytostar-T scintillating microplate, GE Healthcare Bio-Sciences AB, Uppsala, Sweden), at the density of 5×10^3 to 10^4 cells per well, in an amount of 180 μl per well. After incubating for 4 hours, the test compounds are added. The compounds are prepared beforehand as a stock solution at the concentration of 10 mM in DMSO. A serial dilution is performed before the compounds are brought into contact with the cells in a volume of 10 μl. After incubating for 72 hours at 37° C. in an atmosphere of 95% air/5% CO2, 0.1 μCi/well of ^14C-thymidine is added. 24 h later (total 96 h of treatment), the incorporation of ^14C-thymidine is recorded on a suitable scintillation counter (MicroBeta radioactivity counting, Perkin-Elmer Life Sciences, Boston, Mass., USA). The mean values obtained in the experimental groups are divided by the mean values obtained in the control groups in order to obtain percentages relative to the controls.
as §1

| Compound | IC50 (CCRF-CEM cells) | IC50 (H460) |
| --- | --- | --- |
| Cn1ccn(C)[c]1=[Pt-]([I])([I])[NH2+]C1CC2CCC1C2 (racemic) [Example 6, trans-diiodo(N-exo(+/−)bicyclo[2.2.1]heptylamine)(1,3-dimethyl-imidazol-2-ylidene)platinum(II)] | 1700 nM | 2800 nM |
| Cn1c(=O)c2c(n(C)c1=O)n(C)[c](=[Pt]([I])([I])[NH]C1CC3CCC1C3)n2C (racemic) [Example 25, trans-diiodo(N-exo(+/−)bicyclo[2.2.1]heptylamine) (1,3,7,9-tetramethylxanthin-8-ylidene)platinum(II)] | 1000 nM | 1500 nM |
| Cn1ccn(C)[c]1=[Pt-]([I])([I])[NH2+]C1CC2CCC1C2 (single isomer, unassigned) [Example 23, trans-diiodo(N-exo(+)bicyclo[2.2.1]heptylamine)(1,3-dimethylimidazol-2-ylidene)platinum(II)] | 1600 nM | 2300 nM |
| Cn1ccn(C)[c]1=[Pt-]([I])([I])[NH2+]C1CC2CCC1C2 (single isomer, unassigned) [Example 24, trans-diiodo(N-exo(−)bicyclo[2.2.1]heptylamine)(1,3-dimethylimidazol-2-ylidene)platinum(II)] | 900 nM | 2100 nM |
| Cn1ccn(C)[c]1=[Pt-]([I])([I])[NH2+]C1CCCCC1 [Example 1, trans-diiodo(N-cyclohexylamine)(1,3-dimethylimidazol-2-ylidene)platinum(II)] | 2800 nM and 1900 nM | 5400 nM and 3000 nM |
| Cn1cnn(C)[c]1=[Pt]([I])([I])[NH]C1CCCCC1 [Example 2, trans-diiodo(N-cyclohexylamine)(1,4-dimethyl-1,2,4-triazol-5-ylidene)platinum(II)] | 1500 nM | 2500 nM |
| Cn1ccn(-c2ccccc2)[c]1=[Pt-]([I])([I])[NH2+]C1CCCCC1 [Example 4, trans-diiodo(N-cyclohexylamine)(1-methyl-3-phenylimidazol-2-ylidene)platinum(II)] | 1500 nM | 2300 nM |
| Cn1[c](=[Pt]([I])([I])[NH]C2CCCCC2)n(C)c2ccccc21 [Example 8, trans-diiodo(N-cyclohexylamine)(1,3-dimethylbenzimidazol-2-ylidene)platinum(II)] | 3100 nM | 1900 nM |
| Cn1ccn(C)[c]1=[Pt-]([I])([I])[NH2+]Cc1ccccc1 [Example 13, trans-diiodo(N-benzylamine)(1,3-dimethylimidazol-2-ylidene)-platinum(II)] | 1700 nM | 3000 nM |
| Cn1ccn(C)[c]1=[Pt-]([I])([I])[NH2+]Cc1ccc(C(F)(F)F)cc1 [Example 14, trans-diiodo[N-4-(trifluoromethyl)benzylamine](1,3-dimethylimidazol-2-ylidene)platinum(II)] | 1700 nM | 2600 nM |
| C=Cn1ccn(C)[c]1=[Pt-]([I])([I])[NH2+]C1CCCCC1 [Example 15, trans-diiodo(N-cyclohexylamine)[1-methyl-3-vinylimidazol-2-ylidene]platinum(II)] | 2100 nM | 3800 nM |
| [I][Pt-]([I])([NH2+]C1CCCCC1)=[c]1n(C2CCCCC2)ccn1C1CCCCC1 [Example 18, trans-diiodo(N-cyclohexylamine)(1,3-dicyclohexylimidazol-2-ylidene)platinum(II)] | 1400 nM | 2700 nM |
| Cn1c(-c2ccccc2)c[n+](C)[c]1[Pt-2]([I])([I])[NH2+]C1CCCCC1 [Example 20, trans-diiodo(N-cyclohexylamine)[1,3-dimethyl-4-phenylimidazol-2-ylidene]platinum(II)] | 2100 nM | 4400 nM |
| Cn1c(-c2ccccc2)c(-c2ccccc2)n(C)[c]1=[Pt]([I])([I])[NH]C1CCCCC1 [Example 22, trans-diiodo(N-cyclohexylamine)[1,3-dimethyl-4,5-diphenylimidazol-2-ylidene]platinum(II)] | 1200 nM | 1800 nM |
| C[n+]1c(-c2ccccc2)c(-c2ccccc2)n(Cc2ccccc2)[c]1[Pt-2]([I])([I])[NH2+]C1CCCCC1 [Example 26, trans-diiodo(N-cyclohexylamine)[3-benzyl-4,5-diphenyl-1-methyl-imidazol-2-ylidene]platinum (II)] | 1200 nM | 2900 nM |
| CN1CCC([NH2+][Pt-]([I])([I])=[c]2n(C)ccn2Cc2ccccc2)CC1 [Example 27, trans-diiodo[N-(1-methylpiperidin-4-ylamine)](1-methyl-3-benzyl-imidazol-2-ylidene)platinum(II)] | 1600 nM | 1700 nM |
| CCC(CC)[NH2+][Pt-]([I])([I])=[c]1n(C)ccn1Cc1ccccc1 [Example 28, trans-diiodo(N-pentan-3-ylamine)(1-methyl-3-benzylimidazol-2-ylidene)platinum(II)] | 1400 nM | 1600 nM |
| Cn1ccn(Cc2ccccc2)[c]1=[Pt-]([I])([I])[NH2+]C1CCOCC1 [Example 29, trans-diiodo(N-4-aminotetrahydropyran)(1-methyl-3-benzylimidazol-2-ylidene)platinum(II)] | 500 nM | 900 nM |
| Cn1ccn(Cc2ccccc2)[c]1=[Pt-]([I])([I])[NH2+]C1CCCC1 [Example 30, trans-diiodo(N-cyclopentylamine)(1-methyl-3-benzylimidazol-2-ylidene)platinum(II)] | 1100 nM | 1300 nM |
| Cn1ccn(Cc2ccccc2)[c]1=[Pt-]([I])([I])[NH+]1CCOCC1 [Example 31, trans-diiodo(N-morpholine)(1-methyl-3-benzylimidazol-2-ylidene)-platinum(II)] | 700 nM | 900 nM |
| COc1cccc(Cn2cc[n+](C)[c]2[Pt-2]([I])([I])[NH2+]C2CCCCC2)c1 [Example 32, trans-diiodo(N-cyclohexylamine)[3-(3-methoxybenzyl)-1-methyl-imidazol-2-ylidene]platinum(II)] | 1200 nM | 1400 nM |
| C[n+]1ccn(Cc2cccc(C(F)(F)F)c2)[c]1[Pt-2]([I])([I])[NH2+]C1CCCCC1 [Example 33, trans-diiodo(N-cyclohexylamine)[1-methyl-3-(3-trifluoromethylbenzyl)imidazol-2-ylidene]platinum(II)] | 700 nM | 800 nM |
| Cn1ccn(Cc2ccc(C(F)(F)F)cc2)[c]1=[Pt-]([NH2+]C1CCCCC1)([O][N+](=O)[O-])[O][N+](=O)[O-] [Example 34, trans-dinitrato(N-cyclohexylamine)[1-methyl-3-(4-trifluoromethyl-benzyl)imidazol-2-ylidene]platinum(II)] | 1400 nM | 3100 nM |
| COc1ccc(Cn2cc[n+](C)[c]2[Pt-2]([I])([I])[NH2+]C2CCCCC2)cc1OC [Example 35, trans-diiodo(N-cyclohexylamine)[3-(3,4-dimethoxybenzyl)-1-methylimidazol-2-ylidene]platinum(II)] | 1300 nM | 2700 nM |
| Cn1ccn(Cc2ccc(C(F)(F)F)cc2)[c]1=[Pt-]([I])([I])[NH+]1CCOCC1 [Example 36, trans-diiodo(N-morpholine)(1-methyl-3-(4-trifluoromethylbenzyl)-imidazol-2-ylidene)platinum(II)] | 600 nM | 900 nM |
| Cn1cc[n+](Cc2ccc(C(F)(F)F)cc2)[c]1[Pt-2]([I])([I])[NH2+]C1CCOCC1 [Example 37, trans-diiodo(N-tetrahydropyran-4-ylamine)(1-methyl-3-(4-trifluoro-methylbenzyl)imidazol-2-ylidene)platinum(II)] | 900 nM | 1400 nM |
